{
  "source": "patent US20200352976A1",
  "about": "“HYPOMETHYLATING AGENTS FOR USE IN TREATMENT OF CANCER” (Otsuka Pharmaceutical Co., Ltd, priority 2019, published 2020)",
  "test_system": "treatment naïve acute myeloid leukemia (TN-AML)",
  "test": "Phase 3 randomized trial Compound I-1 vs treatment choice: CR, OS, PFS, EFS, subgroup analyses",
  "type": "in vivo, human",
  "conditions": "for EFS HR (95% CI) / PFS HR (95% CI): Compound I-1/TC",
  "protocol": "A Phase 3 randomized trial comparing Compound I-1 to a treatment choice of azacitidine, decitabine, or Low Dose Ara-C(LDAC) in patients with AML was performed.\nThe patients were randomized 1:1 to either Compound I-1 (60 mg/m^2/d subcutaneous injection for 5 days of a 28-day cycle), or a preselected treatment choice of azacitidine, decitabine, or LDAC at standard doses. AML diagnosis and response status were assessed by an independent blinded central pathologist. CR and OS were the co-primary endpoints.\nCompound I-1 powder was reconstituted at a concentration of 100 mg/mL and administered subcutaneously (SC) at a dose of 60 mg/m^2 daily on days 1-5 of a 28-day cycle.\nLDAC was given at a dose of 20 mg SC twice daily (BID) on days 1-10 of a 28-day cycle. Decitabine was given at a dose of 20 mg/m^2 as a 1-hour intravenous (IV) infusion on days 1-5 of a 28-day cycle. Azacitidine was given IV or SC daily on days 1-7 of a 28-day cycle at a dose of 75 mg/m^2. Other TC treatment parameters such as dose adjustment guidelines followed locally approved prescribing information and institutional standard practice.\nTwo co-primary endpoints were used: complete response (CR) rate based on modified International Working Group (IWG) 2003 AML Response Criteria and OS (the number of days from randomization to death). Secondary endpoints included CRc (CR+CR with incomplete blood count recovery [CRi]+CR with incomplete platelet recovery [CRp]) rate, number of days alive and out of the hospital (NDAOH), progression-free survival (PFS), health related quality of life (QOL) by EQ-5D (consisting of the EQ-5D-5L descriptive system and the EQ Visual Analogue Scale [EQ VAS]), duration of CR (the time from first CR to time of relapse), incidence and severity of adverse events (AEs), and 30- and 60-day all-cause mortality.\nCR rate was compared between Compound I-1 and TC groups using Cochran Mantel-Haenszel test at an alpha of 0.04, stratified by the stratification factors used at randomization. OS curves were estimated using Kaplan-Meier (K-M) method and formally compared between Compound I-1 and TC groups using a 2-sided stratified log-rank test, stratified by the same stratification factors used at randomization. Sensitivity analyses were conducted for CR rate and OS to evaluate the robustness of the treatment effect.\nCRc rate was compared between treatment groups using a Cochran Mantel-Haenszel test with the same stratification variable as for CR and OS. NDAOH was compared between treatment groups using an analysis of variance model (ANOVA) with stratification variables used as fixed factors. PFS was compared between treatment groups using a stratified log-rank test.\nThe number of RBC and platelet transfusions up to Day 180 were summarized descriptively. 95% CI of the mean was also provided. The EQ-5D-5L index values and EQ VAS up to Day 180 were analyzed descriptively and using a mixed model approach for repeated measures.\nData obtained during the trial of EXAMPLE 4 were further analyzed for selected subgroups of patients including patients who achieved CR in patients who received at least 4 or 6 treatment cycles.\nTN-AML patients ineligible for intensive chemotherapy (IC) due to age ≥75 y, coexisting morbidities, or ECOG PS 2-3 were randomized 1:1 to either Compound I-1 (60 mg/m^2/d SC for 5-days Q28 days) or a preselected treatment choice (TC) of azacitidine (AZA), decitabine (DEC), or low-dose Ara-C(LDAC) at the prescribed dosing schedule. AML diagnosis and response status were assessed by an independent central pathologist blinded to randomization assignment. Complete response (CR) and overall survival (OS) were the co-primary endpoints. The patients' characteristics, number of treatment cycles, reasons for treatment discontinuation, CR, and OS including analyses by number of cycles received including prospective subgroups, and OS analyses of responders and non-responders were analyzed. […]",
  "key": {"[1]": {"conditions": "number of days alive and out of the hospital"}, "[2]": {"conditions": "patients with at least 4 cycles"}, "[3]": {"conditions": "patients with at least 4 cycles (n = 476)"}, "[4]": {"conditions": "patients with at least 6 cycles"}, "[5]": {"conditions": "patients with at least 6 cycles (n = 375)"}},
  "note": "“And” between values parts separate entries of the source, which are not always exact repeats. Equal entries are not always repeated.",
  "data": [
    {"molecule": "Nc1ncn([C@H]2CC(OP(=O)(O)OC[C@H]3O[C@@H](n4cnc5c(=O)[nH]c(N)nc54)CC3O)[C@@H](CO)O2)c(=O)n1", "note": "(stereo partly shown) [Compound I-1]", "values": [
      {"measurement": "CR odds ratio (logistic regression)", "setting": "Compound I-1 vs TC", "value": 1.14},
      {"measurement": "CR rate Treatment Difference", "setting": "Compound I-1 vs TC", "value": 1.92, "unit": "%"},
      {"measurement": "CRc rate Treatment Difference", "setting": "Compound I-1 vs TC", "value": 0.39},
      {"measurement": "NDAOH LS Mean Treatment Difference", "setting": "Compound I-1 vs TC", "value": "−7.8"},
      {"measurement": "Overall survival hazard ratio", "setting": "Compound I-1 vs each treatment choice", "value": "less than 1"},
      {"measurement": "12-month survival rate", "setting": "ITT", "value": 37, "unit": "%"},
      {"measurement": "24-month survival rate", "setting": "ITT", "value": 18, "unit": "%"},
      {"measurement": "Median PFS", "setting": "ITT", "value": 5.3, "unit": "months"},
      {"measurement": "Overall Survival K-M Estimate, 25th percentile", "setting": "ITT", "value": 71.0, "unit": "days"},
      {"measurement": "Overall Survival K-M Estimate, 75th percentile", "setting": "ITT", "value": 584.0, "unit": "days"},
      {"measurement": "Overall Survival K-M Estimate, Median", "setting": "ITT", "value": "213 days and 213.0 days"},
      {"measurement": "PFS K-M Estimate, Median", "setting": "ITT", "value": 159, "unit": "days"},
      {"measurement": "Survival, 75th percentile", "setting": "ITT", "value": 19.5, "unit": "months"},
      {"measurement": "Median EFS", "setting": "ITT Population (n = 815)", "value": 5.1, "unit": "months"},
      {"measurement": "Median OS", "setting": "ITT Population (n = 815)", "value": 7.1, "unit": "months"},
      {"measurement": "EFS HR (95% CI)", "setting": "ITT Population", "value": "0.85 (0.74-0.98), p 0.02"},
      {"measurement": "PFS HR", "setting": "ITT, Compound I-1 vs TC", "value": "0.99 (0.86-1.15), p 0.93"},
      {"measurement": "12-month survival rate", "setting": "ITT, as fraction", "value": 0.37},
      {"measurement": "24-month survival rate", "setting": "ITT, as fraction", "value": 0.18},
      {"measurement": "CRc (CR + CRi + CRp)", "setting": "ITT, N = 408 / 407", "value": 93, "unit": "subjects"},
      {"measurement": "Complete Response (CR)", "setting": "ITT, N = 408 Compound I-1, N = 407 TC", "value": 79, "unit": "subjects"},
      {"measurement": "Overall survival hazard ratio", "setting": "baseline TP53 mutations (94 patients), Compound I-1 vs treatment choice", "value": 1.8},
      {"measurement": "Median duration of CR", "setting": "complete responders", "value": 7.2, "unit": "months"},
      {"measurement": "EQ VAS LS mean change from baseline", "setting": "first 6 months", "value": 0.87},
      {"measurement": "Platelet transfusions, mean", "setting": "first 6 months", "value": 12.5, "unit": "units"},
      {"measurement": "RBC transfusions, mean", "setting": "first 6 months", "value": 16.2, "unit": "units"},
      {"measurement": "Index EQ-5D-5L score LS mean difference", "setting": "first 6 months, Compound I-1 vs TC", "value": "−0.019"},
      {"measurement": "Mean NDAOH over 6 months", "setting": "in vivo", "value": 3.3, "unit": "months"},
      {"measurement": "NDAOH per patient-year rate", "setting": "in vivo", "value": 297, "unit": "days"},
      {"measurement": "One-year survival rate", "setting": "landmark analysis (approximately 4 months), at least 4 cycles", "value": 51, "unit": "%"},
      {"measurement": "Overall survival hazard ratio", "setting": "landmark analysis, greater than 3 treatment cycles, Compound I-1 vs TC", "value": 0.78},
      {"measurement": "Treatment Discontinuation Before 4 Cycles: Progressive Disease", "setting": "n = 408 I-1, n = 407 TC", "value": 7.6, "unit": "%"},
      {"measurement": "Treatment Discontinuation Before 6 Cycles: Progressive Disease", "setting": "n = 408 I-1, n = 407 TC", "value": 10.8, "unit": "%"},
      {"measurement": "OS HR", "setting": "non-responders, at least 6 cycles, Compound I-1 vs TC", "value": 0.73},
      {"measurement": "NDAOH in First 6 Months, LS Mean", "setting": "[1]", "value": 98.9},
      {"measurement": "NDAOH in First 6 Months, Mean", "setting": "[1]", "value": 98.1},
      {"measurement": "Median EFS", "setting": "patients who achieved an objective response (CR, CRp, CRi, or PR)", "value": 17.4, "unit": "m"},
      {"measurement": "EFS HR", "setting": "patients who achieved an objective response, Compound I-1 vs TC", "value": 0.68},
      {"measurement": "Median OS", "setting": "[2]", "value": 15.6, "unit": "months"},
      {"measurement": "CR Rate", "setting": "patients with at least 4 cycles (n = 235 I-1; n = 241 TC)", "value": 33.6, "unit": "%"},
      {"measurement": "Median EFS", "setting": "[3]", "value": 12.1, "unit": "months"},
      {"measurement": "Median PFS", "setting": "[3]", "value": 10.3, "unit": "months"},
      {"measurement": "EFS HR (95% CI)", "setting": "[2]", "value": "0.74 (0.61-0.9), p 0.002"},
      {"measurement": "PFS HR (95% CI)", "setting": "[2]", "value": "0.88 (0.73-1.06), p 0.17"},
      {"measurement": "OS HR (95% CI)", "setting": "patients with at least 4 cycles, Compound I-1 vs TC", "value": "0.78 (0.64, 0.96), p 0.02 and 0.78 (0.64-0.96), p 0.02"},
      {"measurement": "Median OS", "setting": "[4]", "value": 19.5, "unit": "months"},
      {"measurement": "CR Rate", "setting": "patients with at least 6 cycles (n = 187 I-1; n = 188 TC)", "value": 40.1, "unit": "%"},
      {"measurement": "Median EFS", "setting": "[5]", "value": 14.9, "unit": "months"},
      {"measurement": "Median PFS", "setting": "[5]", "value": 11.9, "unit": "months"},
      {"measurement": "EFS HR (95% CI)", "setting": "[4]", "value": "0.69 (0.56-0.86), p 0.001"},
      {"measurement": "PFS HR (95% CI)", "setting": "[4]", "value": "0.86 (0.7-1.07), p 0.17"},
      {"measurement": "OS HR (95% CI)", "setting": "patients with at least 6 cycles, Compound I-1 vs TC", "value": "0.69 (0.54, 0.88), p 0.002 and 0.69 (0.54-0.88), p 0.002"},
      {"measurement": "OS HR", "setting": "responders (CR, CRp, CRi, or PR), at least 6 cycles, Compound I-1 vs TC", "value": 0.66},
      {"measurement": "OS HR", "setting": "subjects who achieved any CR (CR, CRp, or CRi), Compound I-1 vs TC, post hoc", "value": 0.72},
      {"measurement": "Overall survival hazard ratio", "setting": "without TP53 mutations (696 patients), Compound I-1 vs treatment choice", "value": 0.86}
    ]}
  ]
}
